Experimental data reported in US7511133B2, “Adenosine A3 receptor agonists” (King Pharmaceuticals Research and Development, Inc., priority 2003, dated 2009).
Where two headings read alike, the source gives them in different places.

How the values were obtained:
[1] = biological target: T1, human A2A adenosine receptors (Homo sapiens, UniProt P29274); assay: Displacement of [^3H]CGS21680 binding, human A2A adenosine receptors in CHO cells (agonist radioligand); conditions: read-out: Ki(A2A). Displacement of [^3H]CGS21680 binding to human A2A adenosine receptors exp. in CHO cells.
T1 construct: expressed in transfected cells; host or cells: CHO cells

[2] = biological target: T2, human A1 adenosine receptors (Homo sapiens, UniProt P30542); assay: Displacement of [^3H]CHA binding, human A1 adenosine receptors in CHO cells (agonist radioligand)
T2 sequence (P30542 1-326): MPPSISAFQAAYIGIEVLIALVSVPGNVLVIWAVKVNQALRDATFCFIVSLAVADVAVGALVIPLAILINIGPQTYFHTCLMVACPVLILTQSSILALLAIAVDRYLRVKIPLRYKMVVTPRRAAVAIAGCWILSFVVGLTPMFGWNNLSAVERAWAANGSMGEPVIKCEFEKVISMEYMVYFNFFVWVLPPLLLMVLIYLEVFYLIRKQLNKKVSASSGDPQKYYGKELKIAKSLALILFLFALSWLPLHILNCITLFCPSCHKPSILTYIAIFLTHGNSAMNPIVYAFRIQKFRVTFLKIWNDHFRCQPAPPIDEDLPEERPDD

[3] = biological target: T3, human A3 adenosine receptors (Homo sapiens, UniProt P0DMS8); conditions: for A1/A3: ratio Ki(A1)/Ki(A3), agonist radioligands
T3 sequence (P0DMS8 1-318): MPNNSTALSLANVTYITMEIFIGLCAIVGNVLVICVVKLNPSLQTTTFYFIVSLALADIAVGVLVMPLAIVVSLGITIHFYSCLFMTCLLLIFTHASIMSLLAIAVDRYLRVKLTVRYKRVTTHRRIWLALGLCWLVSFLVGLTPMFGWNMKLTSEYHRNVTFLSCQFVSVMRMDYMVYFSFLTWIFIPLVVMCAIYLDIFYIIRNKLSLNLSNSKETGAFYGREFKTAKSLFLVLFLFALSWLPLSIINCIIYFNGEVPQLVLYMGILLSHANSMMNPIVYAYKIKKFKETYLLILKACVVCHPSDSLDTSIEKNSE

[4] = human A2A, CHO cells, [^3H]CGS21680

T1 sequence (P29274 whole entry): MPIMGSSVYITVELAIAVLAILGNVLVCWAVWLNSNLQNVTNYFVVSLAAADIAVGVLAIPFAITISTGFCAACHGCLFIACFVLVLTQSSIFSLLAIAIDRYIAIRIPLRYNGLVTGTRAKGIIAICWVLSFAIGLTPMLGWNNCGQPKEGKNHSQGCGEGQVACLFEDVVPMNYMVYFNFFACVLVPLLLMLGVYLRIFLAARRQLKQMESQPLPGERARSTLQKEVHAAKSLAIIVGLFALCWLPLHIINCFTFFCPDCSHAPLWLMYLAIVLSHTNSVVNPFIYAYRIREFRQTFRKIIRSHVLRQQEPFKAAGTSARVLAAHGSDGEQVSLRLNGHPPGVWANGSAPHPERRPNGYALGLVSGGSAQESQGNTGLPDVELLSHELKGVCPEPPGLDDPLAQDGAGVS

Structure (SMILES)	melting point	also measured
CCNC(=O)[C@H]1O[C@@H](n2cnc3c(NC(=O)Nc4cccc(S(=O)(=O)NC56C[C@H]7C[C@@H](C5)C[C@@H](C6)C7)c4)ncnc32)C(O)C1O (stereo partly drawn) [Compound 113, 1-Deoxy-N-ethyl-1-[[6-[[[3-N-(adamantan-1-yl)-sulfonamidophenyl]amino]carbonyl]amino]-9H-purin-9-yl]-b-D-ribofuran-uronamide]	188 to 189 °C	
CCNC(=O)[C@H]1O[C@@H](n2cnc3c(NC(=O)Nc4ccc(S(=O)(=O)N(C)C(C)C)cc4)ncnc32)C(O)C1O (stereo partly drawn) [Compound 97, 1-Deoxy-1-[6-[[[[4-[N-(1-methylethyl)-N-(methyl)-aminosulfonyl]phenyl]amino]carbo-nyl]amino]-9H-purin-9-yl]-N-ethyl-β-D-ribofuranuronamide]	140 °C	
CCNC(=O)[C@H]1O[C@@H](n2cnc3c(NC(=O)Nc4cccc(S(=O)(=O)N5CC=CC5)c4)ncnc32)C(O)C1O (stereo partly drawn) [Compound 114, 1-Deoxy-N-ethyl-1-[[6-[[[3-(2,5-dihydropyrrol-1-yl)sulfonylphenyl]amino]carbonyl]amino]-9H-purin-9-yl]-b-D-ribofuranuronamide]	145 to 146 °C	
CCCCCNS(=O)(=O)c1cccc(NC(=O)Nc2ncnc3c2ncn3[C@@H]2O[C@H](C(=O)NCC)C(O)C2O)c1 (stereo partly drawn) [Compound 104, 1-Deoxy-N-ethyl-1-[[6-[[[3-N-(pentyl)-sulfonamido-phenyl]amino]carbonyl]amino]-9H-purin-9-yl]-b-D-ribofuranuronamide]	158 to 159 °C	
CCNC(=O)[C@H]1O[C@@H](n2cnc3c(NC(=O)Nc4cccc(S(=O)(=O)N(C)C(C)C)c4)ncnc32)C(O)C1O (stereo partly drawn) [Compound 112, 1-Deoxy-N-ethyl-1-[[6-[[[3-N-(isopropyl)-N-(methyl)-sulfonamidophenyl]amino]carbonyl]amino]-9H-purin-9-yl]-b-D-ribofuranuron-amide]	147 to 148 °C	
CCNC(=O)[C@H]1O[C@@H](n2cnc3c(NC(=O)Nc4ccc(S(=O)(=O)N(C)C)cc4)ncnc32)C(O)C1O (stereo partly drawn) [Compound 98, 1-Deoxy-1-[6-[[[[4-[N,N-(dimethyl)amino-sulfonyl]phenyl]amino]carbonyl]amino]-9H-purin-9-yl]-N-ethyl-β-D-ribofuranuronamide]	176 °C	Ki [1, 4]: > 1 µM; Ki [2]: 0.28 µM
CCCCCNS(=O)(=O)c1ccccc1NC(=O)Nc1ncnc2c1ncn2[C@@H]1O[C@H](C(=O)NCC)C(O)C1O (stereo partly drawn) [Compound 108, 1-Deoxy-N-ethyl-1-[[6-[[[2-N-(pentyl)-sulfonamido-phenyl]amino]carbonyl]amino]-9H-purin-9-yl]-b-D-ribofuranuronamide]	155 to 157 °C	
CCNC(=O)[C@H]1O[C@@H](n2cnc3c(NC(=O)Nc4cccc(S(=O)(=O)Nc5ccc(OC)cc5)c4)ncnc32)C(O)C1O (stereo partly drawn) [Compound 105, 1-Deoxy-N-ethyl-1-[[6-[[[3-N-(4-methoxyphenyl)-sulfonamidophenyl]amino]carbonyl]amino]-9H-purin-9-yl]-b-D-ribofuran-uronamide]	206 to 208 °C (dec.)	
CCNC(=O)[C@H]1O[C@@H](n2cnc3c(NC(=O)Nc4ccc(S(=O)(=O)NC5C=CCC5)cc4)ncnc32)[C@H](O)[C@@H]1O (stereo partly shown) [Compound 101]		Ki [1]: > 1 µM; Ki ([2]; read-out: Ki(A1). Displacement of [^3H]CHA binding to human A1 adenosine receptors exp. in CHO cells., human A1, CHO cells, [^3H]CHA, confidence limits in parentheses): 0.25 µM; A1/A3 [3]: 13.16
CCNC(=O)[C@H]1O[C@@H](n2cnc3c(NC(=O)Nc4ccccc4S(=O)(=O)NC45C[C@H]6C[C@@H](C4)C[C@@H](C5)C6)ncnc32)C(O)C1O (stereo partly drawn) [Compound 109, 1-Deoxy-N-ethyl-1-[[6-[[[2-N-(adamantan-1-yl)-sulfonamidophenyl]amino]carbonyl]amino]-9H-purin-9-yl]-b-D-ribofuran-uronamide]	159 to 161 °C	
CCNC(=O)[C@H]1O[C@@H](n2cnc3c(NC(=O)Nc4ccccc4S(=O)(=O)N(C)C(C)C)ncnc32)C(O)C1O (stereo partly drawn) [Compound 107, 1-Deoxy-N-ethyl-1-[[6-[[[2-N-(isopropyl)-N-(methyl)-sulfonamidophenyl]amino]carbonyl]amino]-9H-purin-9-yl]-b-D-ribofuranuron-amide]	142 to 144 °C	
CCNC(=O)[C@H]1O[C@@H](n2cnc3c(NC(=O)Nc4ccccc4S(N)(=O)=O)ncnc32)C(O)C1O (stereo partly drawn) [Compound 106, 1-Deoxy-N-ethyl-1-[[6-[[(2-sulfonamidophenyl)amino]-carbonyl]amino]-9H-purin-9-yl]-b-D-ribofuranuronamide]	188 to 189 °C	
CCCN(CCC)S(=O)(=O)c1ccc(NC(=O)Nc2ncnc3c2ncn3[C@@H]2O[C@H](C(=O)NCC)[C@@H](O)[C@H]2O)cc1 [Compound 102, 1-Deoxy-1-[6-[[[[4-[N,N-bis(propyl)aminosulfonyl]phenyl]amino]-carbo-nyl]amino]-9H-purin-9-yl]-N-ethyl-β-D-ribofuranuronamide]		Ki [1, 4]: > 1 µM; Ki [2]: 0.35 µM; Ki [3]: 0.014 µM
C=CCN(CC=C)S(=O)(=O)c1ccc(NC(=O)Nc2ncnc3c2ncn3[C@@H]2O[C@H](C(=O)NCC)[C@@H](O)[C@H]2O)cc1 [Compound 99, 1-Deoxy-1-[6-[[[[4-[N,N-bis(allyl)amino-sulfonyl]phenyl]amino]carbonyl]amino]-9H-purin-9-yl]-N-ethyl-β-D-ribofuranuronamide]	126 °C	Ki [1, 4]: > 1 µM; Ki [2]: 0.38 µM; Ki [3]: 0.01 µM; A1/A3 [3]: 38
CCNC(=O)[C@H]1O[C@@H](n2cnc3c(NC(=O)Nc4ccccc4S(=O)(=O)N4CC=CC4)ncnc32)C(O)C1O (stereo partly drawn) [Compound 110, 1-Deoxy-N-ethyl-1-[[6-[[[2-(2,5-dihydropyrrol-1-yl)sulfonylphenyl]amino]carbonyl]amino]-9H-purin-9-yl]-b-D-ribofuranuronamide]	149 to 151 °C	
CCNC(=O)[C@H]1O[C@@H](n2cnc3c(NC(=O)Nc4ccc(S(=O)(=O)N(CC)CC)cc4)ncnc32)[C@H](O)[C@@H]1O [Compound 100, 1-Deoxy-1-[6-[[[[4-[N,N-bis(ethyl)amino-sulfonyl]phenyl]amino]carbonyl]amino]-9H-purin-9-yl]-N-ethyl-β-D-ribofuranuronamide]	168 °C	Ki [1, 4]: > 1 µM
CCNC(=O)[C@H]1O[C@@H](n2cnc3c(NC(=O)Nc4ccccc4S(=O)(=O)Nc4ccc(OC)cc4)ncnc32)C(O)C1O (stereo partly drawn) [Compound 103, 1-Deoxy-N-ethyl-1-[[6-[[[2-N-(4-methoxyphenyl)-sulfonamidophenyl]amino]carbonyl]amino]-9H-purin-9-yl]-b-D-ribofuran-uronamide]	168 to 170 °C	
